In ChEMBL document CHEMBL4219171, “Synthesis and investigations into the anticancer and antibacterial activity studies of β-carboline chalcones and their bromide salts” (Bioorg Med Chem Lett, 2018):
≈ marks a conversion by molar mass, not a printed value. Calls of active or inactive are those of the source. The rule behind the calls is not given here.

Key:
BXPC-3 = test: Cytotoxicity against human BxPC3 cells after 48 hrs by MTT assay; type: functional, cell-based; conditions: BXPC-3, 48 h
NIH3T3 = test: Cytotoxicity against mouse NIH/3T3 cells after 48 hrs by MTT assay; type: cell-based; conditions: NIH3T3, 48 h
Enterobacter cloacae [1] = test: Antibacterial activity against Enterobacter cloacae NAIMCC-B-02025 assessed as zone of inhibition measured after 18 hrs by disc diffusion method; type: functional; also: test concentration or dose not given here
HEK-293T = test: Cytotoxicity against human HEK293T cells after 48 hrs by MTT assay; type: cell-based
Staphylococcus aureus [2] = test: Antibacterial activity against Staphylococcus aureus MTCC 96 after 24 hrs by broth microdilution assay; type: functional; conditions: MTCC 96, 24 h
Staphylococcus aureus [3] = test: Antibacterial activity against Staphylococcus aureus MTCC 96 assessed as zone of inhibition measured after 18 hrs by disc diffusion method; type: functional; also: test concentration or dose not given here
LNCaP C4-2 = test: Cytotoxicity against human C4-2 cells after 48 hrs by MTT assay; type: functional, cell-based; conditions: LNCaP C4-2, 48 h
Enterobacter cloacae [4] = test: Antibacterial activity against Enterobacter cloacae NAIMCC-B-02025 after 24 hrs by broth microdilution assay; type: functional; conditions: NAIMCC-B-02025, 24 h
PC-3 = test: Cytotoxicity against human PC3 cells after 48 hrs by MTT assay; type: functional, cell-based; conditions: PC-3, 48 h
HeLa = test: Cytotoxicity against human HeLa cells after 48 hrs by MTT assay; type: functional, cell-based
MDA-MB-231 [5] = test: Cytotoxicity against human MDA-MB-231 cells after 48 hrs by MTT assay; type: functional, cell-based; conditions: MDA-MB-231, 48 h
Pseudomonas aeruginosa = test: Antibacterial activity against Pseudomonas aeruginosa MTCC 424 assessed as zone of inhibition measured after 18 hrs by disc diffusion method; type: functional; also: test concentration or dose not given here
Bacillus subtilis [6] = test: Antibacterial activity against Bacillus subtilis MTCC 121 after 24 hrs by broth microdilution assay; type: functional; conditions: MTCC 121, 24 h
Bacillus subtilis [7] = test: Antibacterial activity against Bacillus subtilis MTCC 121 assessed as zone of inhibition measured after 18 hrs by disc diffusion method; type: functional; also: test concentration or dose not given here
MDA-MB-231 [8] = test: Induction of apoptosis in human MDA-MB-231 cells assessed as morphological changes after 24 hrs by acridine orange/ethidium bromide-dual staining based fluorescence microscopic method; type: functional, cell-based
Escherichia coli = test: Antibacterial activity against Escherichia coli MTCC 1652 assessed as zone of inhibition measured after 18 hrs by disc diffusion method; type: functional; also: test concentration or dose not given here

| Compound | IC50 (BXPC-3) | IC50 (NIH3T3) | inhibition zone (IZ) (Enterobacter cloacae [1]) | IC50 (HEK-293T) | MIC (Staphylococcus aureus [2]) | inhibition zone (IZ) (Staphylococcus aureus [3]) | IC50 (LNCaP C4-2) | MIC (Enterobacter cloacae [4]) | IC50 (PC-3) | IC50 (HeLa) | IC50 (MDA-MB-231 [5]) | inhibition zone (IZ) (Pseudomonas aeruginosa) | MIC (Bacillus subtilis [6]) | inhibition zone (IZ) (Bacillus subtilis [7]) | Activity (MDA-MB-231 [8]) | inhibition zone (IZ) (Escherichia coli) |
| --- | --- | --- | --- | --- | --- | --- | --- | --- | --- | --- | --- | --- | --- | --- | --- | --- |
| COc1cc(/C=C/C(=O)c2nccc3c2[nH]c2ccccc23)cc(OC)c1OC | 70.8 µM | > 100 µM | 10 mm | 82.1 µM | > 900 µM | 7 mm | 71.6 µM | 834 µM (≈ 324 µg/mL) | > 100 µM | 75.2 µM | 71.5 µM |  |  |  |  |  |
| C#CC[n+]1ccc2c([nH]c3ccccc32)c1C(=O)/C=C/c1cc(OC)c(OC)c(OC)c1.[Br-] | 72 µM | 88 µM | 13 mm | 55.1 µM |  | 9 mm | 65.5 µM | 590 µM | 61 µM | 70.1 µM | 59.6 µM | 9 mm |  |  |  |  |
| COc1ccc(/C=C/C(=O)c2nccc3c2[nH]c2ccccc23)cc1 | > 100 µM | > 100 µM | 9 mm | > 100 µM | 733 µM (≈ 241 µg/mL) | 12 mm | > 100 µM | 846 µM (≈ 278 µg/mL) | > 100 µM | > 100 µM | > 100 µM | 8 mm | 885 µM (≈ 291 µg/mL) | 8 mm |  |  |
| O=C(/C=C/c1ccccc1)c1nccc2c1[nH]c1ccccc12 | 72 µM | > 100 µM |  | 65.6 µM |  |  | 80.2 µM |  | 93 µM | 82.4 µM | 71.1 µM |  | 838 µM (≈ 250 µg/mL) | 9 mm |  |  |
| COc1cc(/C=C/C(=O)c2c3[nH]c4ccccc4c3cc[n+]2Cc2ccccc2)cc(OC)c1OC.[Br-] | 20 µM | 55.2 µM | 12 mm | 17.2 µM |  | 9 mm | 16.1 µM | 726 µM | 22 µM | 22.1 µM | 16 µM |  |  | 7 mm | Active |  |
| CCCC[n+]1ccc2c([nH]c3ccccc32)c1C(=O)/C=C/c1ccc(OC)cc1.[Br-] | 50.8 µM | 74.6 µM |  | 35.2 µM |  | 9 mm | 38.8 µM |  | 65 µM | 45 µM | 40.9 µM |  |  |  |  |  |
| Cc1ccc(/C=C/C(=O)c2nccc3c2[nH]c2ccccc23)cc1 | > 100 µM | > 100 µM | 10 mm | > 100 µM | 820 µM (≈ 256 µg/mL) | 10 mm | > 100 µM | 828 µM (≈ 259 µg/mL) | > 100 µM | > 100 µM | > 100 µM |  | 720 µM (≈ 225 µg/mL) | 12 mm |  |  |
| COc1ccc(/C=C/C(=O)c2c3[nH]c4ccccc4c3cc[n+]2Cc2ccccc2)cc1.[Br-] | 50.2 µM | 85.3 µM | 8 mm | 41.4 µM | 440 µM | 15 mm | 65.5 µM | 874 µM | 88.3 µM | 60.1 µM | 52.2 µM |  | 875 µM | 8 mm |  | 8 mm |
| CN(C)c1ccc(/C=C/C(=O)c2nccc3c2[nH]c2ccccc23)cc1 |  |  | 8 mm |  | 715 µM (≈ 244 µg/mL) | 11 mm |  | 880 µM (≈ 300 µg/mL) |  |  |  |  | 870 µM (≈ 297 µg/mL) | 8 mm |  | 8 mm |
| C#CC[n+]1ccc2c([nH]c3ccccc32)c1C(=O)/C=C/c1ccc2c(c1)OCO2.[Br-] | 30.1 µM | 72.1 µM | 6 mm | 19.1 µM |  | 9 mm | 24.4 µM |  | 29.6 µM | 25.3 µM | 21.2 µM | 7 mm |  | 7 mm |  |  |
| O=C(N[C@H](CO)[C@H](O)c1ccc([N+](=O)[O-])cc1)C(Cl)Cl [CHLORAMPHENICOL] |  |  | 20 mm |  | 17 µM (≈ 5.49 µg/mL) | 22 mm |  | 24 µM (≈ 7.76 µg/mL) |  |  |  | 21 mm | 32 µM (≈ 10.3 µg/mL) | 22 mm |  | 22 mm |
| COc1cccc2c1C(=O)c1c(O)c3c(c(O)c1C2=O)C[C@@](O)(C(=O)CO)C[C@@H]3O[C@H]1C[C@H](N)[C@H](O)[C@H](C)O1 [DOXORUBICIN] | 13.6 µM | 21.3 µM |  | 3.59 µM |  |  | 3.2 µM |  | 10.2 µM |  | 7.85 µM |  |  |  | Active |  |
| C#CC[n+]1ccc2c([nH]c3ccccc32)c1C(=O)/C=C/c1ccc(OC)cc1.[Br-] | > 100 µM | > 100 µM | 6 mm | > 100 µM |  | 9 mm | > 100 µM |  | > 100 µM | > 100 µM | > 100 µM | 7 mm |  |  |  |  |
| CCCC[n+]1ccc2c([nH]c3ccccc32)c1C(=O)/C=C/c1ccc2c(c1)OCO2.[Br-] | > 100 µM | > 100 µM |  | > 100 µM |  | 9 mm | > 100 µM |  | > 100 µM | > 100 µM | > 100 µM |  |  | 7 mm |  |  |
| O=C(/C=C/c1ccc(C(F)(F)F)cc1)c1nccc2c1[nH]c1ccccc12 |  |  | 11 mm |  | 710 µM (≈ 260 µg/mL) | 11 mm |  | 726 µM (≈ 266 µg/mL) |  |  |  |  |  |  |  | 10 mm |
| O=C(/C=C/c1ccc2c(c1)OCO2)c1c2[nH]c3ccccc3c2cc[n+]1Cc1ccccc1.[Br-] | 55.3 µM | 82.2 µM | 8 mm | 55.1 µM |  | 7 mm | 42.1 µM |  | 79 µM | 45.2 µM | 48.2 µM |  |  | 6 mm |  |  |
| O=C(/C=C/c1ccc2c(c1)OCO2)c1nccc2c1[nH]c1ccccc12 | > 100 µM | > 100 µM |  | > 100 µM |  |  | > 100 µM |  | > 100 µM | > 100 µM | > 100 µM |  |  |  |  |  |
| CCCC[n+]1ccc2c([nH]c3ccccc32)c1C(=O)/C=C/c1cc(OC)c(OC)c(OC)c1.[Br-] | 25.1 µM | 68.6 µM | 10 mm | 34.4 µM | 812 µM | 10 mm | 39.6 µM | 806 µM | 40.1 µM | 35.6 µM | 32 µM | 12 mm |  |  |  | 8 mm |
